# Results: ChEMBL document CHEMBL1128438, “A priori prediction of activity for HIV-1 protease inhibitors employing energy minimization in the active site” (J Med Chem, 1995)
# Target: T1, Human immunodeficiency virus type 1 protease (Human immunodeficiency virus 1, UniProt Q72874)
# Test: In vitro inhibition of HIV-1 protease
row,IC50,Structure (SMILES)
1,212 nM,CC(C)(C)OC(=O)N[C@@H](Cc1ccccc1)[C@@H](O)C[C@@H](Cc1ccccc1)C(=O)N[C@@]1(C)c2ccccc2C[C@H]1O
2,30000 nM,CC(C)(C)OC(=O)N[C@@H](Cc1ccccc1)[C@@H](O)C[C@@H](Cc1ccccc1)C(=O)NCC1CCCCC1
3,66.3 nM,COC(=O)[C@@H]1Cc2ccccc2[C@@H]1NC(=O)[C@H](Cc1ccccc1)C[C@H](O)[C@H](Cc1ccccc1)NC(=O)OC(C)(C)C
4,122 nM,CC(C)(C)OC(=O)N[C@@H](Cc1ccccc1)[C@@H](O)C[C@@H](Cc1ccccc1)C(=O)N[C@H]1CCCC[C@H]1O
5,40.5 nM,CC(C)(C)OC(=O)N[C@@H](Cc1ccccc1)[C@@H](O)C[C@@H](Cc1ccccc1)C(=O)N[C@@H]1c2ccccc2OC[C@@H]1O
6,0.18 nM,CC(C)(C)OC(=O)N[C@@H](Cc1ccccc1)[C@@H](O)C[C@@H](Cc1ccccc1)C(=O)N[C@H]1c2ccccc2OC[C@H]1O
7,161 nM,CC(C)[C@H](NC(=O)[C@H](Cc1ccccc1)C[C@H](O)[C@H](Cc1ccccc1)NC(=O)OC(C)(C)C)C(=O)O
8,38.6 nM,CC(C)(C)OC(=O)N[C@@H](Cc1ccccc1)[C@@H](O)C[C@@H](Cc1ccccc1)C(=O)N[C@H](CO)c1ccccc1
9,690 nM,CC(C)(C)OC(=O)N[C@@H](Cc1ccccc1)[C@@H](O)C[C@@H](Cc1ccccc1)C(=O)N[C@H](CO)Cc1ccccc1
10,114 nM,CC(C)(C)OC(=O)N[C@@H](Cc1ccccc1)[C@@H](O)C[C@@H](Cc1ccccc1)C(=O)NCc1ccccc1
11,146 nM,C[C@@H](NC(=O)[C@H](Cc1ccccc1)C[C@H](O)[C@H](Cc1ccccc1)NC(=O)OC(C)(C)C)C1CCCCC1
12,34.2 nM,CC(C)(C)OC(=O)N[C@@H](Cc1ccccc1)[C@@H](O)C[C@@H](Cc1ccccc1)C(=O)N[C@@H]1CCc2ccccc21
13,0.7 nM,CC(C)(C)OC(=O)N[C@@H](Cc1ccccc1)[C@@H](O)C[C@@H](Cc1ccccc1)C(=O)N[C@H]1c2ccccc2CC[C@H]1O
14,9.53 nM,CC(C)(C)OC(=O)N[C@@H](Cc1ccccc1)[C@@H](O)C[C@@H](Cc1ccccc1)C(=O)N[C@H]1C=CC[C@H]1O

# The next lines start with the molecule.
row,Structure (SMILES),IC50
1,CC(C)(C)OC(=O)N[C@@H](Cc1ccccc1)[C@@H](O)C[C@@H](CSc1ccccc1)C(=O)N[C@H]1c2ccccc2C[C@H]1O,0.25 nM
2,CC(C)(C)OC(=O)N[C@@H](Cc1ccccc1)[C@@H](O)C[C@@](C)(Cc1ccccc1)C(=O)N[C@H]1c2ccccc2C[C@H]1O,7.7 nM
3,CC(C)(C)OC(=O)N[C@@H](Cc1ccccc1)[C@@H](O)CCC(=O)N[C@H]1c2ccccc2C[C@H]1O,2930 nM
4,CC(C)(C)OC(=O)N[C@@H](Cc1ccccc1)[C@@H](O)C[C@@H](CC(=O)c1ccccc1)C(=O)N[C@H]1c2ccccc2C[C@H]1O,5.42 nM
5,CC(C)(C)OC(=O)N[C@@H](Cc1ccccc1)[C@@H](O)C[C@@H](Cc1ccccc1)C(=O)N[C@H]1c2ccccc2C[C@H]1O,0.25 nM
6,CC(C)(C)OC(=O)N[C@@H](Cc1ccccc1)[C@@H](O)C[C@@H](Cc1ccc(C(C)(C)C)cc1)C(=O)N[C@H]1c2ccccc2C[C@H]1O,0.17 nM
7,C=CC[C@H](C[C@H](O)[C@H](Cc1ccccc1)NC(=O)OC(C)(C)C)C(=O)N[C@H]1c2ccccc2C[C@H]1O,27.5 nM
8,CC(C)(C)OC(=O)N[C@@H](Cc1ccccc1)[C@@H](O)C[C@@H](CCCc1ccccc1)C(=O)N[C@H]1c2ccccc2[C@@H](O)[C@H]1O,0.19 nM
9,CC(C)(C)OC(=O)N[C@@H](Cc1ccccc1)[C@@H](O)C[C@@H](Cc1ccncc1)C(=O)N[C@H]1c2ccccc2C[C@H]1O,0.53 nM

# Target: T1, Human immunodeficiency virus type 1 protease
# Test: Inhibition of HIV-1 protease was determined in vitro
row,IC50,Structure (SMILES)
1,4680 nM,CC(C)(C)OC(=O)CN(Cc1ccccc1)C[C@@H](O)[C@H](Cc1ccccc1)NC(=O)OC(C)(C)C
2,52.8 nM,CC(C)[C@H](NC(=O)[C@H](Cc1ccccc1)C[C@H](O)CN1C[C@H]2CCCC[C@H]2C[C@H]1C(=O)NC(C)(C)C)C(=O)Nc1ccc2ccccc2n1
3,589 nM,CC(C)(C)OC(=O)N[C@@H](Cc1ccc(O)cc1)[C@@H](O)[C@@H]1CCC[C@H]1C(=O)NCc1ccccc1
4,0.692 nM,O=C(N[C@H]1c2ccccc2C[C@H]1O)[C@H](Cc1ccccc1)CC(O)C[C@@H](Cc1ccccc1)C(=O)N[C@H]1c2ccccc2C[C@H]1O
5,3020 nM,CC(C)(C)NC(=O)[C@@H]1C[C@@H]2CCCC[C@@H]2CN1CC(O)[C@H](Cc1ccccc1)NC(=O)OC(C)(C)C (stereo not given in full)
6,1270 nM,CC(C)(C)OC(=O)N[C@@H](Cc1ccccc1)[C@@H](O)C[C@]1(Cc2ccccc2)CCCN([C@H]2c3ccccc3C[C@H]2O)C1=O
7,568 nM,CC(C)(C)OC(=O)N[C@@H](Cc1ccccc1)[C@@H](O)CC(=O)NC1c2ccccc2C[C@H]1O (stereo not given in full)
8,1.29 nM,CC(C)(C)OC(=O)N[C@@H](Cc1ccccc1)[C@@H](O)/C=C(/Cc1ccccc1)C(=O)N[C@H]1c2ccccc2C[C@H]1O
9,7.59 nM,CC(C)(C)NC(=O)[C@@H]1C[C@@H]2CCCC[C@@H]2CN1C[C@@H](O)C[C@@H](Cc1ccccc1)C(=O)N[C@H]1c2ccccc2C[C@H]1O
10,6760 nM,CC(C)(C)NC(=O)[C@@H]1C[C@@H]2CCCC[C@@H]2CN1CC(O)CN1C[C@H]2CCCC[C@H]2C[C@H]1C(=O)NC(C)(C)C
11,229 nM,CC(C)(C)OC(=O)N[C@@H](Cc1ccccc1)[C@H](O)CN[C@@H](Cc1ccccc1)C(=O)N[C@H]1c2ccccc2C[C@H]1O
12,1370 nM,CC(C)(C)OC(=O)N[C@@H](Cc1ccccc1)[C@@H](O)[C@H](O)[C@H](Cc1ccccc1)NC(=O)OC(C)(C)C
